Experimental data published in ChEMBL document CHEMBL1128038, “Acyl CoA:cholesterol acyltransferase (ACAT) inhibitors: ureas bearing heterocyclic groups bioisosteric for an imidazole” (Bioorg Med Chem Lett, 1995).
pIC50: −log10 of the molar value.

How the values were obtained:
[1] = biological target: T1, Sterol O-acyltransferase 1 (Mus musculus, UniProt Q61263); assay: Inhibition of acyl coenzyme A:cholesterol acyltransferase (ACAT) in J774 Macrophage cell culture by using J774 assay.; assay type: cell-based
T1 sequence (Q61263 whole entry): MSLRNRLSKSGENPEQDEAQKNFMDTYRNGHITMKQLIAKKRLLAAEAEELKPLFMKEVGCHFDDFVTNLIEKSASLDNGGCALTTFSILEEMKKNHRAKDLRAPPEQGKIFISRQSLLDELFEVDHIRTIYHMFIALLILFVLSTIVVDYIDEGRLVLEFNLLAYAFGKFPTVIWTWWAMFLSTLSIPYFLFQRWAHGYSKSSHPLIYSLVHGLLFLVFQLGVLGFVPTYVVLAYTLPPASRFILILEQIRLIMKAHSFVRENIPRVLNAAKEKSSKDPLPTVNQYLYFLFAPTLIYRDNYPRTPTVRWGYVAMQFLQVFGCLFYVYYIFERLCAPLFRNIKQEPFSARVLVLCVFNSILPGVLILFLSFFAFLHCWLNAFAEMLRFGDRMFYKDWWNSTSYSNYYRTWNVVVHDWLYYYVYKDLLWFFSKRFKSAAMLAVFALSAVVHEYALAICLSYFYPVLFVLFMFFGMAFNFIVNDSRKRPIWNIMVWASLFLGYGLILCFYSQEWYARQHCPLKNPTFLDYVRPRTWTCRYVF

[2] = biological target: T2, Sterol O-acyltransferase 1 (Rattus norvegicus, UniProt O70536); assay: In vitro inhibition of Acyl coenzyme A:cholesterol acyltransferase (ACAT) in rat hepatic microsomes was measured by using AIV assay; IA means the compound was inactive; parameters: species or system Liver
T2 sequence (O70536 whole entry): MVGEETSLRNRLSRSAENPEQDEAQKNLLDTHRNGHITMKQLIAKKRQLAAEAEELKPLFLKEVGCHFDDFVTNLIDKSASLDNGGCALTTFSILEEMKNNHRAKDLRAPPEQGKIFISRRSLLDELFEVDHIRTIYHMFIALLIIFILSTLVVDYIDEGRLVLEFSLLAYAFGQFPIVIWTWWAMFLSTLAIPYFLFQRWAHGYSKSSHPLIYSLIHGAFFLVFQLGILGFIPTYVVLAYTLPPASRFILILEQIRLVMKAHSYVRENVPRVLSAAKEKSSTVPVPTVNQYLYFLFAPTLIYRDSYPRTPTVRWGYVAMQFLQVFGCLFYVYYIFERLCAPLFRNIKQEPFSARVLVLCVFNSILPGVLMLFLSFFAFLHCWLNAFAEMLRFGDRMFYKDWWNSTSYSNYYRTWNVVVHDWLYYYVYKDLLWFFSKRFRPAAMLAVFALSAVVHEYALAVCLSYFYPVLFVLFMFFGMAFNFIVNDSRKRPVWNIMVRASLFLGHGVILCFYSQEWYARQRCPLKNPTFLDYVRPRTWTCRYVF

[3] = Partition coefficient (logP); assay type: physicochemical; settings: octanol/water
[4] = biological target: T2, Sterol O-acyltransferase 1; assay: In vitro inhibition of acyl coenzyme A:cholesterol acyltransferase (ACAT) in rat hepatic microsomes by using AIV assay.; parameters: species or system Liver; settings: for pIC50: read-out: IC50
[5] = biological target: T1, Sterol O-acyltransferase 1; assay: Inhibition of Acyl coenzyme A:cholesterol acyltransferase (ACAT) in J774 Macrophage cell culture was measured by using J774 assay; IA means inactive; assay type: cell-based
[6] = biological target: T1, Sterol O-acyltransferase 1; assay: Inhibition of Acyl coenzyme A:cholesterol acyltransferase (ACAT) in J774 Macrophage cell culture was measured by using J774 assay; IA means the compound was inactive; assay type: cell-based
[7] = biological target: T2, Sterol O-acyltransferase 1; assay: In vitro inhibition of ACYL CoA:Cholesterol Acyltransferase (ACAT) in rat hepatic microsomes was measured by using AIV assay; parameters: species or system Liver

| Structure (SMILES) | pIC50 [1] | logP [3] | pIC50 [4] | also measured |
| --- | --- | --- | --- | --- |
| CCCCCCN(CCCCCSc1nc2cc(OCC)ccc2s1)C(=O)Nc1ccc(F)cc1F | 5.34 | 8.46 | – | IC50 [2]: Not Active |
| CCCCCCCN(CCCCCSc1nc(-c2ccccc2)c(-c2ccccc2)n1C)C(=O)Nc1ccc(F)cc1F | 5.42 | – | – | – |
| CCCCCCN(CCCCCSc1nc2ccccc2o1)C(=O)Nc1ccc(F)cc1F | 5.46 | 7.18 | 4.29 | – |
| CCCCCCN(CCCCCSc1nc2c([nH]1)CCCC2)C(=O)Nc1ccc(F)cc1F | 5.59 | 6.81 | 6.09 | – |
| CCCCCCCN(CCCCCSc1[nH]cnc2ncnc1-2)C(=O)NC(C)C | 5.33 | 4.72 | 4.53 | – |
| CCCCCCCN(CCCCCSc1[nH]cnc2nncc1-2)C(=O)NC(C)C | 5.36 | 5 | 5.15 | – |
| CCCCCCCN(CCCCCSc1ncccn1)C(=O)Nc1ccc(F)cc1F | 5.36 | 5.41 | 5.48 | – |
| CCCCCCCN(CCCCCSc1ncc[nH]1)C(=O)Nc1ccc(F)cc1F | 5.26 | – | – | – |
| CCCCCCN(CCCCCSc1nc2ccccc2s1)C(=O)Nc1ccc(F)cc1F | 5.56 | 7.78 | 5.40 | – |
| CCCCCCN(CCCCCSc1nc2c(=O)n(C)c(=O)n(C)c2[nH]1)C(=O)NC(C)C | 5.82 | 5.1 | 5.44 | – |
| CCCCCCN(CCCCCSc1nc2ccc[nH]c-2n1)C(=O)NC(C)C | 5.15 | 5.62 | 5.15 | – |
| CCCCCCCN(CCCCCSC1N=C(c2ccccc2)c2ccccc2NC1=O)C(=O)Nc1ccc(F)cc1F (stereo not drawn) | 5.16 | 7.59 | – | – |
| CCCCCCN(CCCCCSc1nc2c[nH]cnc-2n1)C(=O)Nc1ccc(F)cc1F | – | 5.26 | 6.07 | IC50 [5]: Not Active |
| CCCCCCCN(CCCCCSc1nc(-c2ccccc2)c(-c2ccccc2)n1-c1ccccc1)C(=O)Nc1ccc(F)cc1F | 4.26 | – | – | IC50 [4]: Not Active |
| CCCCCCCN(CCCCCSc1nc(N)c2c[nH]nc2n1)C(=O)NC(C)C | – | 5.14 | – | IC50 [6]: Not Active; IC50 [4]: Not Active |
| CCCCCCCN(CCCCCSc1nc(N)cc(O)n1)C(=O)NC(C)C | 5.03 | 5.61 | 4.13 | – |
| CCCCCCCN(CCCCCSc1n[nH]c(-c2ccccc2)n1)C(=O)Nc1ccc(F)cc1F | 5.38 | 6.78 | 5.40 | – |
| CCCCCCCN(CCCCCSC1=NC(=O)C(c2ccccc2)(c2ccccc2)N1)C(=O)NC(C)C | 5.67 | – | 5.55 | – |
| CCCCCCN(CCOCCSc1nc2c[nH]cnc-2n1)C(=O)Nc1ccc(F)cc1F | – | 4.32 | – | IC50 [4]: Not Active |
| CCCCCCCN(CCCCCSc1[nH]cnc2nncc1-2)C(=O)Nc1ccc(F)cc1F | 5.48 | 5.6 | 6.15 | – |

| Structure (SMILES) | pIC50 [1] | logP [3] | pIC50 [4] | also measured |
| --- | --- | --- | --- | --- |
| CCCCCCCN(CCCCCSC1N=C(c2ccccc2)c2ccccc2NC1=O)C(=O)NC(C)C (stereo not drawn) | 5.19 | 6.99 | – | – |
| CCCCCCN(CCCCCSc1nc2cc(C)ccc2[nH]1)C(=O)Nc1ccc(F)cc1F | 5.69 | 7.79 | 6.00 | – |
| CCCCCCN(CCCCCSc1nc2cc([N+](=O)[O-])ccc2[nH]1)C(=O)Nc1ccc(F)cc1F | 5.08 | 7.19 | 5.70 | – |
| CCCCCCCN(CCCCCSc1ccccn1)C(=O)Nc1ccc(F)cc1F | 5.35 | 6.41 | 5.40 | – |
| CCCCCCN(CCCCCSc1nc2ccc[nH]c-2n1)C(=O)Nc1ccc(F)cc1F | 5.26 | 6.22 | 5.44 | – |
| CCCCCCCN(CCCCCSc1nc(N)c2c[nH]nc2n1)C(=O)Nc1ccc(F)cc1F | 4.14 | 5.74 | 5.37 | – |
| CCCCCCCN(CCCCCSc1nnc(-c2ccccc2)c(-c2ccccc2)n1)C(=O)Nc1ccc(F)cc1F | 4.97 | 8.72 | 6.36 | – |
| CCCCCCCN(CCCCCSc1nc(O)c2ccccc2n1)C(=O)Nc1ccc(F)cc1F | 4.96 | 6.17 | 5.40 | – |
| CCCCCCN(CCOCCSc1nc2c[nH]cnc-2n1)C(=O)NC(C)C | 4.22 | 3.72 | 5.70 | – |
| CCCCCCCN(CCCCCSc1[nH]cnc2ncnc1-2)C(=O)Nc1ccc(F)cc1F | 5.27 | 5.32 | 6.70 | – |
| CCCCCCN(CCCCCSc1nc2c[nH]cnc-2n1)C(=O)NC(C)C | 4.72 | 4.66 | 4.63 | – |
| CCCCCCCN(CCCCCSc1nc(-c2ccccc2)c[nH]1)C(=O)Nc1ccc(F)cc1F | 5.80 | – | – | – |
| CCCCCCN(CCCCCSc1nc2ccccc2[nH]1)C(=O)Nc1ccc(F)cc1F | 5.51 | 7.29 | 6.30 | – |
| CCCCCCCN(CCCCCSc1nc(-c2ccccc2)cn1-c1ccccc1)C(=O)Nc1ccc(F)cc1F | 5.22 | – | 5.14 | – |
| CCCCCCN(CCCCCSc1nc2ccccc2n1C)C(=O)Nc1ccc(F)cc1F | 5.52 | 7.47 | 5.60 | – |
| CCCCCCCN(CCCCCSc1nnc(-c2ccccc2)n1-c1ccccc1)C(=O)Nc1ccc(F)cc1F | 5.32 | 8.64 | 4.72 | – |
| CCCCCCCN(CCCCCSc1nc[nH]n1)C(=O)Nc1ccc(F)cc1F | 4.56 | – | 5.30 | – |
| CCCCCCCN(CCCCCOC1=NC(S)=NC1(c1ccccc1)c1ccccc1)C(=O)NC(C)C | 5.55 | – | – | pIC50 [7]: 7.05 |
| CCCCCCCN(CCCCCSc1nc(O)cc(Cc2ccccc2)n1)C(=O)NC(C)C | 4.60 | 7.4 | 5.04 | – |
